Results published in US20020151712A1, “3-pyrrolidinyloxy-3'-pyridyl ether compounds useful for controlling chemical synaptic transmission” (priority 1999, published 2002).
Counter-ions that a name gives are not always drawn.

Molecular target: neuronal nicotinic acetylcholine receptors (Rattus norvegicus, UniProt P09483+P12390)
Experiment: [3H]-cytisine binding to neuronal nicotinic acetylcholine receptors, crude synaptic membranes from whole rat brain
Conditions: [3H]-CYT 1.25 nM, 60 minutes at 4° C., Ki from IC50 by Cheng and Prusoff correction
Description: The in vitro protocols for determination of nicotinic acetylcholine channel receptor binding potencies of ligands was determined as follows.
Binding of [^3H]-cytisine ([^3H]-CYT) to neuronal nicotinic acetylcholine receptors was accomplished using crude synaptic membrane preparations from whole rat brain (Pabreza et al., Molecular Pharmacol., 1990, v. 39, p. 9). Washed membranes were stored at −80° C. prior to use. Frozen aliquots were slowly thawed and resuspended in 20 volumes of buffer (containing: 120 mM NaCl, 5 mM KCl, 2 mM MgCl2, 2 mM CaCl2 and 50 mM Tris-Cl, pH 7.4 at 4° C.). After centrifuging at 20,000×g for 15 minutes, the pellets were resuspended in 30 volumes of buffer.
The test compounds were dissolved in water to make 10 mM stock solutions. […]
Homogenate (containing 125-150 μg protein) was added to triplicate tubes containing the range of concentrations of test compound described above and [^3H]-CYT (1.25 nM) in a final volume of 500 μl. […] The filters are counted in 4 mL of Ecolume® (ICN). Nonspecific binding was determined in the presence of 10 μM (−)-nicotine and values were expressed as a percentage of total binding. IC50 values were determined with a four-parameter non-linear regression and IC50 values were converted to Ki values using the Cheng and Prusoff correction (Ki=IC50/(1+[ligand]/Kd of ligand).

neuronal nicotinic acetylcholine receptors, sequence (P09483 31-630): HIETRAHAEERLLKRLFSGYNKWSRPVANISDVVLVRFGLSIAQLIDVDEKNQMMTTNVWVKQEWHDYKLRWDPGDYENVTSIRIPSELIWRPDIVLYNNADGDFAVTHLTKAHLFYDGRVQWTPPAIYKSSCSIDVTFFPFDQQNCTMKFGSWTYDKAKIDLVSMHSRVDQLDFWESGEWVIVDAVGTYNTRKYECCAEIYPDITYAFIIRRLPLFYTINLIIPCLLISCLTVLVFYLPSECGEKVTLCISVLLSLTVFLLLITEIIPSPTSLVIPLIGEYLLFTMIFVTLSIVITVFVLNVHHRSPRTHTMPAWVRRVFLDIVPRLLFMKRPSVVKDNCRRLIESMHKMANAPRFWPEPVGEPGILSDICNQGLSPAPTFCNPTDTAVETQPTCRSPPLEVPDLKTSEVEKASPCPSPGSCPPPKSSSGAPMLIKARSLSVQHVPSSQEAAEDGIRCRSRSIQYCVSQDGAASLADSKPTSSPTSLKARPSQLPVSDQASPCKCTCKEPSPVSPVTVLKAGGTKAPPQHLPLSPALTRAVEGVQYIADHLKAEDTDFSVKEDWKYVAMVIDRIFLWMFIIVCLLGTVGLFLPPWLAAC
neuronal nicotinic acetylcholine receptors, sequence (P12390 25-500): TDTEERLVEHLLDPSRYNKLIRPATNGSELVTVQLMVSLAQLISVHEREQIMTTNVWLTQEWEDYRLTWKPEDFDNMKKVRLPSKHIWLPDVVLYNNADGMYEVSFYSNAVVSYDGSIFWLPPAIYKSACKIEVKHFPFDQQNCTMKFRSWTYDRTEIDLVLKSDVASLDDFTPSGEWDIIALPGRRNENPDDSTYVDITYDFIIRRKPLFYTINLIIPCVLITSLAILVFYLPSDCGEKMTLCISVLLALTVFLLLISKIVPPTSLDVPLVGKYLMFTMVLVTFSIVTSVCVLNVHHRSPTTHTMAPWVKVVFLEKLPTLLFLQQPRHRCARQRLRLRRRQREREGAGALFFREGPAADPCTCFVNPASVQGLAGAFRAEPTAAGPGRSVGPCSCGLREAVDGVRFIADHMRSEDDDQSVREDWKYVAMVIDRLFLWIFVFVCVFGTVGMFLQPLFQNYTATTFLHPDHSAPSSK

Q: Which Ki does the source give for `Clc1ncc(OC[C@@H]2CCNC2)cc1Br` [Example 35, 3-Bromo-2-chloro-5-(3-(R)-pyrrolidinylmethoxy)pyridine 4-methyl benzenesulfonate] here?
A: 0.021 nM

Tested on: mice
Experiment: mouse hot plate paradigm (analgesia)
Type: in vivo
Conditions: mouse hot plate 55° C., intraperitoneal, dosed 30 minutes prior to testing, increase in tenth jump latency relative to control
Description: An in vivo protocol was utilized to determine the effectiveness of nicotinic acetylcholine receptor ligands as analgesic agents in the mouse hot plate paradigm. Separate groups of mice, (n=8/group) were utilized for each dose group. All drugs were administered by the intraperitoneal route of administration. Test drugs were dissolved in water to make a 6.2 mM stock solution. Animals were dosed with this solution (10 mL/kg body weight) for a 62 micromol/kg dose. Lower doses were administered similarly, following serial dilution of the stock solution in half-log increments. Animals were dosed 30 minutes prior to testing in the hot plate. The hot-plate utilized was an automated analgesia monitor (Model #AHP16AN, Omnitech Electronics, Inc. of Columbus, Ohio). The temperature of the hot plate was maintained at 55° C. and a cut-off time of 180 seconds was utilized. Latency until the tenth jump was recorded as the dependent measure. An increase in the tenth jump latency relative to the control was considered an effect.

Q: With `Clc1ncc(OCC2CCNC2)cc1Br` (stereo not drawn) [Example 25, 3-Bromo-2-chloro-5-(3-pyrrolidinylmethoxy)pyridine toluenesulfonate] as the molecule, how does the “minimally effective dose (MED), Dosage” value read?
A: 6.2 µmol/kg

Q: With `CN1CCC(COc2cnc(Cl)c(Br)c2)C1` (stereo not drawn) [Example 26, 3-Bromo-2-chloro-5-(1-methyl-3-pyrrolidinylmethoxy) pyridine toluenesulfonate] as the molecule, how does the “minimally effective dose (MED), Dosage” value read?
A: 62 µmol/kg

Q: With `Cc1ccc(S(=O)(=O)O)cc1.Cc1cncc(OCC2CCNC2)c1` (stereo not drawn) [Example 27, 5-methyl-3-(3-pyrrolidinylmethoxy)pyridine tosylate] as the molecule, how does the “minimally effective dose (MED), Dosage” value read?
A: 19 µmol/kg

Q: Which “minimally effective dose (MED), Dosage” value does the source give for `Cc1ccc(OC2CCCCNC2)cn1` (stereo not drawn) [Example 29, 3-(6-Methylpyridinyl-3-oxy)perhydroazepine dihydrochloride] here?
A: 62 µmol/kg

Tested on: not given
Experiment: not given
Conditions: not given

Q: For `CN1CC[C@H](Oc2cnc(Cl)c(C=Cc3ccncc3)c2)C1.Cl`, which melting point is on record?
A: 106 to 108 °C

Q: For `CC(C)(C)C=CC=Cc1cncc(O[C@H]2CCNC2)c1` (as salt: hydrochloride) [Example 7, 3-(3-(S)-Pyrrolidinyloxy-5-(5,5-dimethylhexadienyl)pyridine hydrochloride], which melting point is on record?
A: 148 °C (dec.)

Q: For `c1csc(-c2cncc(O[C@@H]3CCNC3)c2)c1` (as salt: hydrochloride) [Example 19, 3-(3-(R)-Pyrrolidinyloxy)-5-thienylpyridine hydrochloride], which melting point is on record?
A: 201 to 203 °C

Q: With `Fc1ccc(OC2CCCCNC2)cn1` (stereo not drawn) (as salt: hydrochloride) [Example 30, 3-(6-Fluoropyridinyl-3-oxy)perhydroazepine hydrochloride] as the molecule, how does the melting point read?
A: 121 to 122 °C

Q: With `Clc1ncc(OCC2CCNC2)cc1Br` (stereo not drawn) (as salt: toluenesulfonate) [Example 25, 3-Bromo-2-chloro-5-(3-pyrrolidinylmethoxy)pyridine toluenesulfonate] as the molecule, how does the melting point read?
A: 105 to 107 °C

Q: With `CN1CCC(COc2ccc(Cl)nc2)C1` (stereo not drawn) (as salt: toluenesulfonate) [Example 32, 2-Chloro-5-(1-methylpyrrolidinyl-3-methoxy)pyridine p-toluenesulfonate] as the molecule, how does the melting point read?
A: 75 to 77 °C

Q: For `Clc1cc(OCC2CCNC2)cnc1Cl` (stereo not drawn) (as salt: toluenesulfonate) [Example 33, 2,3-Dichloro-5-(pyrrolidinyl-3-methoxy)pyridine p-toluenesulfonate], which melting point is on record?
A: 82 to 84 °C

Q: For `CN1CC[C@@H](Oc2cncc(C=Cc3ccncc3)c2)C1.Cl` [Example 5, 3-(1-Methyl-3-(R)-pyrrolidinyloxy)-5-(2-(4-pyridyl)ethenyl)pyridine hydrochloride], which melting point is on record?
A: 88 to 90 °C

Q: With `CCCCCCC#Cc1cncc(O[C@H]2CCNC2)c1.Cl` [Example 8, 3-(3-(S)-pyrrolidinyloxy)-5-(1-octynyl)pyridine hydrochloride] as the molecule, how does the melting point read?
A: 66 to 68 °C

Q: With `CCCCCCC#Cc1cncc(O[C@@H]2CCN(C)C2)c1.Cl` [Example 10, 3-(1-N-Methyl-3-(R)-pyrrolidinyloxy)-5-(1-octynyl)pyridine hydrochloride] as the molecule, how does the melting point read?
A: 133 to 135 °C

Q: For `Cl.c1ncc(-c2cncc(O[C@H]3CCNC3)c2)cn1` [Example 11, 3-(3-(S)-pyrrolidinyloxy)-5-(5-pyrimidyl)pyridine hydrochloride], which melting point is on record?
A: 60 to 62 °C

Q: With `Cl.c1ncc(-c2cncc(O[C@@H]3CCNC3)c2)cn1` [Example 13, 3-(3-(R)-Pyrrolidinyloxy)-5-(5-pyrimidinyl)pyridine hydrochloride] as the molecule, how does the melting point read?
A: 67 to 69 °C

Q: With `Cl.Nc1cccc(-c2cncc(O[C@H]3CCNC3)c2)c1` [Example 14, 3-(3-(S)-Pyrrolidinyloxy)-5-(3-aminophenyl)pyridine hydrochloride] as the molecule, how does the melting point read?
A: 208 °C (dec.)

Q: For `Cl.c1ccc(-c2cncc(O[C@H]3CCNC3)c2)cc1` [Example 15, 3-(3-(S)-Pyrrolidinyloxy)-5-phenylpyridine hydrochloride], which melting point is on record?
A: 60 °C (dec.)

Q: For `CN1CC[C@H](Oc2cncc(-c3ccccc3)c2)C1.Cl` [Example 16, 3-(1-Methyl-3-(S)-pyrrolidinyloxy)-5-phenylpyridine hydrochloride], which melting point is on record?
A: 88 to 90 °C

Q: With `Cl.c1ccc(-c2cncc(O[C@@H]3CCNC3)c2)cc1` [Example 17, 3-(3-(R)-Pyrrolidinyloxy)-5-phenylpyridine hydrochloride] as the molecule, how does the melting point read?
A: 60 °C (dec.)

Q: With `Cl.Clc1ccc(-c2cncc(O[C@H]3CCNC3)c2)cc1` [Example 21, 3-(3-(S)-Pyrrolidinyloxy)-5-(4-chlorophenyl)pyridine hydrochloride] as the molecule, how does the melting point read?
A: 65 °C (dec.)

Q: For `Cl.Clc1ncc(O[C@H]2CCNC2)cc1Br` [Example 22, 3-(3-(S)-Pyrrolidinyloxy)-5-bromo-6-chloropyridine hydrochloride], which melting point is on record?
A: 178 to 180 °C

Q: With `CN1CC[C@H](Oc2cnc(Cl)c(Br)c2)C1.Cl` [Example 23, 3-(1-N-Methyl-3-(S)-pyrrolidinyloxy)-5-bromo-6-chloropyridine hydrochloride] as the molecule, how does the melting point read?
A: 180 °C (dec.)
